Source: patent publication US11274093B2, “Fused bicyclic benzoheteroaromatic compounds and methods of use thereof” (Araxes Pharma LLC, priority 2017, dated 2022)

The compounds below were run against T1, KRAS G12C 1-169, his-tagged protein, GDP-loaded (Homo sapiens, UniProt P01116, G12C) (assay: Biochemical assay: covalent binding to KRAS G12C measured by mass spectrometry). Details: covalently bind to KRAS G12C, after a thirty minute incubation period.
T1 construct: KRAS G12C 1-169, his-tagged protein, GDP-loaded
Procedure: Test compounds were prepared as 10 mM stock solutions in DMSO (Fisher cat #BP-231-100). KRAS G12C 1-169, his-tagged protein, GDP-loaded was diluted to 0.5 μM in buffer (20 mM Hepes, 150 mM NaCl, 1 mM MgCl2). Compounds were tested for activity as follows:
Compounds were diluted to 50× final test concentration in DMSO in 96-well storage plates. Compound stock solutions were vortexed before use and observed carefully for any sign of precipitation. Dilutions were as follow: • For 100 μM final compound concentration, compounds were diluted to 5000 μM (5 μL 10 mM compound stock+5 μL DMSO and mixed well by pipetting. • For 30 μM final compound concentration, compounds were diluted to 1500 μM (3 μL 10 mM compound stock+17 μL DMSO) and mixed well by pipetting. • For 10 μM final compound concentration, compounds were diluted to 500 μM (2 μL 10 mM compound stock+38 μL DMSO) and mixed well by pipetting. 49 μL of the stock protein solution was added to each well of a 96-well PCR plate (Fisher cat #1423027). 1 μl of the diluted 50× compounds were added to appropriate wells in the PCR plate using 12-channel pipettor. Reactions were mixed carefully and thoroughly by pipetting up/down with a 200 μL multi-channel pipettor. The plate was sealed well with aluminum plate seal, and stored in drawer at room temperature for 10 minutes, 30 minutes, 2 hours or 24 hours. 5 μL of 2% formic acid (Fisher cat #A117) in de-ionized H2O was then added to each well followed by mixing with a pipette. The plate was then resealed with aluminum seal and stored on dry ice until analyzed as described below.
The above described assays were analyzed by mass spectrometry according to one of the following two procedures:
The MS instrument is set to positive polarity, 2 GHz resolution, and low mass (1700) mode and allowed to equilibrate for 30 minutes. The instrument is then calibrated, switched to acquisition mode and the appropriate method loaded.
After another 30 minute equilibration time, a blank batch (i.e., buffer) is run to ensure equipment is operating properly. The samples are thawed at 37° C. for 10 minutes, briefly centrifuged, and transfer to the bench top. Wells A1 and H12 are spiked with 1 μL 500 μM internal standard peptide, and the plates centrifuged at 2000×g for 5 minutes. The method is then run and masses of each individual well recorded.
The masses (for which integration data is desired) for each well are pasted into the platemap and exported from the analysis. Masses for the internal standards are exported as well. The data at 50 ppm is extracted for the +19 charge state, and identity of well A1 is assigned using the internal standard spike and integrated. Peak data is exported as a TOF list and the above steps are repeated individually, for the +20, 21, 22, 23, 24, and 25 charge states.
The masses and peak intensities of KRAS G12C protein species were measured using a Dionex RSLCnano system (Thermo Scientific) connected to a Q Exactive Plus mass spectrometer (Thermo Scientific).
[…] of sample was each loaded onto a Aeris™ […] WIDEPORE C4 200 Å, LC Column 50×2.1 mm column maintained at 40° C. at a flow rate of 600 μL/min with […] (0.1% formic acid in acetonitrile). The liquid chromatography conditions were 20% solvent B for 1 minute, 20% to 60% solvent B for 1.5 minutes, 60% to 90% solvent for 0.5 minute, 90% solvent B for 0.2 minute, 90% to 20% solvent B for 0.2 minute, and then equilibrated for 1.6 minute before the following sample injection. The flow rate was maintained at 600 μL/min throughout the sample analysis.
The mass spectrometer was operated in profile mode at a resolution of 17500, 5 microscans, using 50 msec max injection time and an AGC target of 1×10^6, and a full mass range from 800-1850 m/z was recorded. The HCD trapping gas was optimized for maximum sensitivity for intact proteins. […]

Compound	Binding %
C=CC(=O)N1CC(Nc2cncc3c(-c4cc(O)cc5ccccc45)cccc23)C1 [Compound 25, 1-(3-((8-(3-hydroxynaphthalen-1-yl)isoquinolin-4-yl)amino)azetidin-1-yl)prop-2-en-1-one]	++ (++ indicates binding activity of 5% or more)
C=CC(=O)N1CCC(Nc2cnnc3c(-c4c(C)ccc5[nH]ncc45)cccc23)C1 (centres unmarked) [Compound 23, 1-(3-((8-(5-methyl-1H-indazol-4-yl)cinnolin-4-yl)amino)pyrrolidin-1-yl)prop-2-en-1-one]	+ (+ indicates binding activity up to 5%)
C=CC(=O)N1CC(Nc2cncc3c(-c4cc(O)cc5ccccc45)ccnc23)C1 [Compound 24, 1-(3-((4-(3-hydroxynaphthalen-1-yl)-1,6-naphthyridin-8-yl)amino)azetidin-1-yl)prop-2-en-1-one]	++ (++ indicates binding activity of 5% or more)
C=CC(=O)N1CC(Nc2ncnc3c(-c4c(C)ccc5[nH]ncc45)cccc23)C1 [Compound 1, 1-(3-((8-(5-methyl-1H-indazol-4-yl)quinazolin-4-yl)amino)azetidin-1-yl)prop-2-en-1-one]	+ (+ indicates binding activity up to 5%)
C=CC(=O)N1CC(Nc2ncnc3c(-c4cc(O)cc5ccccc45)cccc23)C1 [Compound 2, 1-(3-((8-(3-hydroxynaphthalen-1-yl)quinazolin-4-yl)amino)azetidin-1-yl)prop-2-en-1-one]	++ (++ indicates binding activity of 5% or more)
C=CC(=O)N1CC(Nc2cncc3c(-c4c(C)ccc5[nH]ncc45)cccc23)C1 [Compound 26, 1-(3-((8-(5-methyl-1H-indazol-4-yl)isoquinolin-4-yl)amino)azetidin-1-yl)prop-2-en-1-one]	++ (++ indicates binding activity of 5% or more)
C=CC(=O)N1CCC(Nc2cnnc3c(-c4cc(O)cc5ccccc45)cccc23)C1 (centres unmarked) [Compound 22]	+ (+ indicates binding activity up to 5%)
C=CC(=O)N1CCN(c2cnnc3c(-c4c(C)ccc5[nH]ncc45)cccc23)CC1 [Compound 19, 1-(4-(8-(5-methyl-1H-indazol-4-yl)cinnolin-4-yl)piperazin-1-yl)prop-2-en-1-one]	+ (+ indicates binding activity up to 5%)
C=CC(=O)N1CC(Nc2cnnc3c(-c4cc(O)cc5ccccc45)cccc23)C1 [Compound 18, 1-(3-((8-(3-hydroxynaphthalen-1-yl)cinnolin-4-yl)amino)azetidin-1-yl)prop-2-en-1-one]	++ (++ indicates binding activity of 5% or more)
C=CC(=O)N1CCN(c2cnnc3c(-c4cc(O)cc5ccccc45)cccc23)CC1 [Compound 20, 1-(4-(8-(3-hydroxynaphthalen-1-yl)cinnolin-4-yl)piperazin-1-yl)prop-2-en-1-one]	++ (++ indicates binding activity of 5% or more)
C=CC(=O)N1CCCC(Nc2cnnc3c(-c4c(C)ccc5[nH]ncc45)cccc23)C1 (centres unmarked) [Compound 21, 1-(3-((8-(5-methyl-1H-indazol-4-yl)cinnolin-4-yl)amino)piperidin-1-yl)prop-2-en-1-one]	+ (+ indicates binding activity up to 5%)
